Results filed as inconclusive are left out.
System: BDF1 mice, M5076 sarcoma s.c., survival/tumor T/C
Test: NCI In Vivo Anticancer Drug Screen. Data for tumor model Sarcoma M5076 (subcutaneous) in B6D2F1 (BDF1) mice
Experimental: The antitumor activity of compounds was measured in mice bearing transplantable tumors. Survival or tumor size were measured and the results are expressed as the measurement made in the treated group (T) divided by the measurement made in the vehicle treated control group (C). The tumor model used in this assay is Sarcoma M5076 (subcutaneous) in B6D2F1 (BDF1) mice

[1] = endpoint: median survival time, dose: 50.0 mg/kg/injection, schedule: Q01DX009 (ip), vehicle: saline with Tween-80, higher = longer survival
[2] = endpoint: median survival time, dose: 100.0 mg/kg/injection, schedule: Q01DX009 (ip), vehicle: saline with Tween-80, higher = longer survival
[3] = endpoint: median survival time, dose: 200.0 mg/kg/injection, schedule: Q01DX009 (ip), vehicle: saline with Tween-80, higher = longer survival
[4] = endpoint: median tumor weight (est.), dose: 50.0 mg/kg/injection, schedule: Q01DX009 (ip), vehicle: saline with Tween-80, higher = larger tumour
[5] = endpoint: median tumor weight (est.), dose: 100.0 mg/kg/injection, schedule: Q01DX009 (ip), vehicle: saline with Tween-80, higher = larger tumour
[6] = endpoint: median tumor weight (est.), dose: 200.0 mg/kg/injection, schedule: Q01DX009 (ip), vehicle: saline with Tween-80, higher = larger tumour

NC(=O)c1csc(C2OC(CO)C(O)C2O)n1 (centres undefined)
T/C (endpoint: median survival time, dose: 9.38 mg/kg/injection, schedule: Q01DX009 (ip), vehicle: saline, higher = longer survival): 103 % of control | T/C (endpoint: median survival time, dose: 18.8 mg/kg/injection, schedule: Q01DX009 (ip), vehicle: saline, higher = longer survival): 97 % of control | T/C (endpoint: median survival time, dose: 37.5 mg/kg/injection, schedule: Q01DX009 (ip), vehicle: saline, higher = longer survival): 93 % of control | T/C (endpoint: median survival time, dose: 75.0 mg/kg/injection, schedule: Q01DX009 (ip), vehicle: saline, higher = longer survival): 94 % of control | T/C (endpoint: median survival time, dose: 150.0 mg/kg/injection, schedule: Q01DX009 (ip), vehicle: saline, higher = longer survival): 97 % of control | T/C (endpoint: median survival time, dose: 300.0 mg/kg/injection, schedule: Q01DX009 (ip), vehicle: saline, higher = longer survival): 97 % of control | T/C (endpoint: median survival time, dose: 600.0 mg/kg/injection, schedule: Q01DX009 (ip), vehicle: saline, higher = longer survival): 101 % of control | T/C (endpoint: median tumor weight (est.), dose: 9.38 mg/kg/injection, schedule: Q01DX009 (ip), vehicle: saline, higher = larger tumour): 95 % of control | T/C (endpoint: median tumor weight (est.), dose: 18.8 mg/kg/injection, schedule: Q01DX009 (ip), vehicle: saline, higher = larger tumour): 95 % of control | T/C (endpoint: median tumor weight (est.), dose: 75.0 mg/kg/injection, schedule: Q01DX009 (ip), vehicle: saline, higher = larger tumour): 100 % of control | T/C (endpoint: median tumor weight (est.), dose: 150.0 mg/kg/injection, schedule: Q01DX009 (ip), vehicle: saline, higher = larger tumour): 104 % of control | T/C (endpoint: median tumor weight (est.), dose: 300.0 mg/kg/injection, schedule: Q01DX009 (ip), vehicle: saline, higher = larger tumour): 91 % of control

CN(C)c1nc(N(C)C)nc(N(C)C)n1
T/C (endpoint: median survival time, dose: 44.0 mg/kg/injection, schedule: Q04DX006 (ip), vehicle: saline with Tween-80, higher = longer survival): 97 % of control | T/C (endpoint: median survival time, dose: 88.0 mg/kg/injection, schedule: Q04DX006 (ip), vehicle: saline with Tween-80, higher = longer survival): 108 % of control | T/C (endpoint: median survival time, dose: 176.0 mg/kg/injection, schedule: Q02DX033 (ip), vehicle: saline with Tween-80, higher = longer survival): 189 % of control | T/C (endpoint: median survival time, dose: 176.0 mg/kg/injection, schedule: Q04DX006 (ip), vehicle: saline with Tween-80, higher = longer survival): 120 % of control | T/C (endpoint: median survival time, dose: 352.0 mg/kg/injection, schedule: Q04DX006 (ip), vehicle: saline with Tween-80, higher = longer survival): 112 % of control | T/C (endpoint: median tumor weight (est.), dose: 30.0 mg/kg/injection, schedule: Q02DX011 (ip), vehicle: saline with Tween-80, higher = larger tumour): 110 % of control | T/C (endpoint: median tumor weight (est.), dose: 60.0 mg/kg/injection, schedule: Q02DX011 (ip), vehicle: saline with Tween-80, higher = larger tumour): 54 % of control | T/C (endpoint: median tumor weight (est.), dose: 120.0 mg/kg/injection, schedule: Q02DX011 (ip), vehicle: saline with Tween-80, higher = larger tumour): 17 % of control

S=P(N1CC1)(N1CC1)N1CC1
T/C (endpoint: median survival time, dose: 3.4 mg/kg/injection, schedule: Q01DX007 (ip), vehicle: saline, higher = longer survival): 100 % of control | T/C (endpoint: median survival time, dose: 3.4 mg/kg/injection, schedule: Q02DX007 (ip), vehicle: saline, higher = longer survival): 105 % of control | T/C (endpoint: median survival time, dose: 4.0 mg/kg/injection, schedule: Q04DX003 (ip), vehicle: saline, higher = longer survival): 101 % of control | T/C (endpoint: median survival time, dose: 5.0 mg/kg/injection, schedule: Q01DX007 (ip), vehicle: saline, higher = longer survival): 105 % of control | T/C (endpoint: median survival time, dose: 5.0 mg/kg/injection, schedule: Q02DX007 (ip), vehicle: saline, higher = longer survival): 101 % of control | T/C (endpoint: median survival time, dose: 6.0 mg/kg/injection, schedule: Q04DX003 (ip), vehicle: saline, higher = longer survival): 100 % of control | T/C (endpoint: median survival time, dose: 6.0 mg/kg/injection, schedule: Q07DX003 (ip), vehicle: saline, higher = longer survival): 99 % of control | T/C (endpoint: median survival time, dose: 7.5 mg/kg/injection, schedule: Q01DX007 (ip), vehicle: saline, higher = longer survival): 106 % of control | T/C (endpoint: median survival time, dose: 7.5 mg/kg/injection, schedule: Q02DX007 (ip), vehicle: saline, higher = longer survival): 117 % of control | T/C (endpoint: median survival time, dose: 9.0 mg/kg/injection, schedule: Q04DX003 (ip), vehicle: saline, higher = longer survival): 107 % of control | T/C (endpoint: median survival time, dose: 9.0 mg/kg/injection, schedule: Q07DX003 (ip), vehicle: saline, higher = longer survival): 108 % of control | T/C (endpoint: median survival time, dose: 12.0 mg/kg/injection, schedule: Q07DX003 (ip), vehicle: saline, higher = longer survival): 111 % of control

O=C1CC(=O)N(C2CCCCC2)C(=O)N1c1ccccc1S(=O)(=O)Oc1ccccc1
T/C [1]: 94 % of control | T/C [2]: 90 % of control | T/C [3]: 100 % of control | T/C [4]: 111 % of control | T/C [5]: 56 % of control | T/C [6]: 96 % of control

CCc1ccc(NC(=O)/C=C\C(=O)O)cc1
T/C [1]: 86 % of control | T/C [2]: 105 % of control | T/C [3]: 91 % of control | T/C [4]: 112 % of control | T/C [5]: 85 % of control | T/C [6]: 106 % of control

Source: PubChem BioAssay AID288 (DTP/NCI, 2004)
